{
  "source": "patent US20090202572A1",
  "about": "“COMPOSITIONS AND METHODS FOR MODULATING BONE MASS” (priority 2004, published 2009)",
  "molecules": {"B1": {"name": "Parathyroid hormone (peptide, UniProt P01270 32-115, looked up)", "Parathyroid hormone": "SVSEIQLMHNLGKHLNSMERVEWLRKKLQDVHNFVALGAPLAPRDAGSQRPRKKEDNVLVESHEKSLGEADKADVNVLTKAKSQ", "modifications": "Parathyroid hormone", "notes": "Parathyroid hormone (PTH)"}},
  "key": {"[1]": {"tested_on": "osteoblasts and BMMs", "assay": "Co-culture of osteoblasts and BMMs with 1,25-(OH)2 vitamin D3 (TRAP+ osteoclast count)", "type": "cell-based, mouse", "settings": "for number of TRAP-positive multinucleated osteoclasts in co-culture: WT osteoblasts and WT BMMs, ISO 10 uM, 4 days", "procedure": "(§1) BBMs were differentiated with the indicated amounts of RANK-L and MCS-F and the number of TRAP+ osteoclasts was counted after 5 days. […] BBMs were differentiated in presence of MCS-F and RANK-L with or without 10 uM ISO and the number of TRAP+ osteoclasts was counted after 5 days. […] BBMs were differentiated in presence of MCS-F and RANK-L and were treated by ISO (10 μM), dobutamine (Dobu, 10 μM) or calcitonin (100 pg/ml). Intracellular cAMP production was measured by EIA. […] Osteoblasts and BMMs were co-cultured with 1,25(OH)2-vitamin D (10^-8 M) with or without ISO (10 uM) and the number of TRAP+ osteoclasts was counted after 4 days. […] WT and Adrb2 primary osteoblasts were treated for the indicated time with ISO (10 μM) and gene expression was quantified by real-time RT-PCR. (g) Schematic diagram of the structure of Rank-1 and IL6 promoters. Boxes represent CREB-like consensus binding sites.\nTo that end we performed co-culture of BMMs and osteoblasts prepared from mouse calvariae. In this assay treatment of osteoblasts with 1,25-(OH)2 vitamin D3 leads to the differentiation of BMMs into TRAP-positive multinucleated osteoclasts."}, "[2]": {"tested_on": "WT mice", "assay": "Gene expression in bones of WT mice treated for 3 weeks", "type": "in vivo, mouse", "settings": "3 weeks treatment", "text": "To determine the biological relevance of these findings we performed two experiments. First, we treated WT mice with isoproterenol for 3 weeks and analyzed bone resorption parameters and bone expression of Rank-l and IL6 at the end of this treatment period. […] Second, to determine the role that this physiological regulation may have in pathological conditions such as bone loss developing after menopause, we ovariectomized WT and Adrb2−l− mice at one month of age and analyzed them 3 months later. […] The increase in bone formation that persisted together with the absence of any increase in bone resorption explained why Adrb2−/− mice maintained a higher bone mass than WT mice."}, "[3]": {"tested_on": "WT mature osteoclasts", "assay": "Osteoclast function: resorption pits on dentine slices", "type": "cell-based, mouse", "description": "WT or Adrb2 BBMs were differentiated for 2 days with MCS-F and RANK-L, trypsinized and platted on dentine slices for 2 days. Resorption pits were stained with hematoxylin and resorption pit area was quantified (data not shown). To test whether sympathetic signaling could affect osteoclast function, we treated TRAP-positive multinucleated osteoclasts with isoproterenol."}, "[4]": {"tested_on": "primary osteoblasts", "assay": "Gene expression in primary osteoblasts by real-time RT-PCR", "type": "cell-based, mouse", "procedure": "as §1\nTo test this hypothesis we analyzed the expression in osteoblasts of genes encoding known regulators of osteoclast differentiation following treatment with isoproterenol."}, "[5]": {"tested_on": "WT osteoblasts", "assay": "cAMP production in osteoblasts", "type": "cell-based, mouse", "text": "β2AR is the only post-synaptic β-AR whose expression can be detected in osteoblasts. […] Thus, we used Adrb2−/− mice to study how sympathetic signaling affects bone remodeling in adult animals."}, "[6]": {"tested_on": "mature osteoclasts", "assay": "cAMP production in mature osteoclasts (EIA)", "type": "cell-based, mouse", "settings": "ISO 10 μM, calcitonin 100 pg/ml", "procedure": "(a) In vitro osteoclastogenesis is not affected by Adrb2 deficiency. BBMs were differentiated with the indicated amounts of RANK-L and MCS-F and the number of TRAP+ osteoclasts was counted after 5 days. (b) In vitro osteoclast differentiation is not affected by Isoproterenol (ISO) treatment. BBMs were differentiated in presence of MCS-F and RANK-L with or without 10 uM ISO and the number of TRAP+ osteoclasts was counted after 5 days. […] BBMs were differentiated in presence of MCS-F and RANK-L and were treated by ISO (10 μM), dobutamine (Dobu, 10 μM) or calcitonin (100 pg/ml). Intracellular cAMP production was measured by EIA. (d) ISO stimulated osteoclast differentiation via stimulation of b2AR in osteoblasts. Osteoblasts and BMMs were co-cultured with 1,25(OH)2-vitamin D (10^-8 M) with or without ISO (10 uM) and the number of TRAP+ osteoclasts was counted after 4 days. (e) ISO induced Rank-l expression in osteoblasts, via b2AR. (f) ISO induced IL6 expression in osteoblasts, via b2AR. WT and Adrb2 primary osteoblasts were treated for the indicated time with ISO (10 μM) and gene expression was quantified by real-time RT-PCR. (g) Schematic diagram of the structure of Rank-1 and IL6 promoters. Boxes represent CREB-like consensus binding sites.\nTo test whether sympathetic signaling could affect osteoclast function, we treated TRAP-positive multinucleated osteoclasts with isoproterenol."}, "[7]": {"tested_on": "bone marrow macrophages (BMMs)", "assay": "In vitro osteoclast differentiation of BMMs with RANK-L and M-CSF (TRAP+ count)", "type": "cell-based, mouse", "settings": "10 uM ISO, counted after 5 days", "procedure": "as §1"}, "[8]": {"tested_on": "WT mice", "assay": "Bone remodeling parameters in treated WT mice", "type": "in vivo, mouse", "text": "(a) von Kossa staining of vertebral sections. Six month old Adrb2−/− and Adrb2+/− mice display an increase in bone volume over tissue volume (BV/TV) compared to wt littermates. (b) Bone formation parameters: bone formation rate (BFR), osteoblast surface over bone surface (ObS/BS) and osteoblast number over bone perimeter (ObNb/BPm) are increased in Adrb2−/− and Adrb2+/− mice. (c) Bone resorption parameters: osteoclast surface over bone surface (OcS/BS), osteoclast number over bone perimeter (OcNb/BPm) and urinary elimination of deoxypiridinoline (dpd) are decreased in Adrb2−/− and Adrb2+/− mice.\nFirst, we analyzed mice lacking only one copy of Adrb2 and compared them to WT mice treated with propranolol, a β-adrenergic receptor antagonist whose administration enhances bone formation in mice. Expression of Adrb2 was first assayed in WT, Adrb2−/− and Adrb2+/− osteoblasts. […] This was due to both an increase in bone formation and a decrease in bone resorption (FIGS. 1b and 1c). To our knowledge, this high bone mass is the only phenotypic consequence reported so far in the case of haploinsufficiency at the Adrb2 locus."}, "[9]": {"tested_on": "WT mice", "settings": "stated as known property; cited from earlier work"}},
  "note": "Entries after “also recorded” stand apart in the source; their conditions may differ. Like-named read-outs stand apart in the source and are kept apart here.",
  "data": [
    {"molecule": "CC(C)NCC(O)c1ccc(O)c(O)c1", "note": "(stereo not drawn) [isoproterenol]", "values": [
      {"measurement": "osteoclast differentiation in co-culture", "setting": "[1]; Adrb2−/− osteoblasts with WT BMMs", "value": "could not enhance"},
      {"measurement": "number of TRAP-positive multinucleated osteoclasts in co-culture", "setting": "[1]", "value": "significantly increased"},
      {"measurement": "number of TRAP-positive multinucleated osteoclasts in co-culture", "setting": "[1]; listed as ISO", "value": "stimulated"},
      {"measurement": "osteoclast differentiation in co-culture", "setting": "[1]; WT osteoblasts with Adrb2−/− BMMs", "value": "increased"},
      {"measurement": "IL6 expression in bones", "setting": "[2]", "value": "increased"},
      {"measurement": "OPG expression in bones", "setting": "[2]", "value": "unaffected"},
      {"measurement": "Rank-l expression in bones", "setting": "[2]", "value": "increased"},
      {"measurement": "osteoclast function (pit formation / resorption pit area on dentine slices)", "setting": "[3]", "value": "did not affect"},
      {"measurement": "osteoclast function (pit formation / resorption pit area on dentine slices)", "setting": "[3]; listed as ISO", "value": "normal"},
      {"measurement": "induction of Rank-l expression", "setting": "[4]; Adrb2−/− osteoblasts", "value": "not detected"},
      {"measurement": "IL6 expression in osteoblasts", "setting": "[4]; ISO 10 μM", "value": "increased"},
      {"measurement": "IL6 expression in osteoblasts", "setting": "[4]; ISO 10 μM, listed as ISO", "value": "induced"},
      {"measurement": "Rank-l expression in osteoblasts (in words)", "setting": "[4]; WT osteoblasts, ISO 10 μM", "value": "induced"},
      {"measurement": "increase of Rank-l expression", "setting": "[4]; WT osteoblasts, ISO 10 μM", "value": "~20", "unit": "fold"},
      {"measurement": "expression of IL2", "setting": "[4]; osteoblasts, data not shown", "value": "did not affect"},
      {"measurement": "expression of ILI α", "setting": "[4]; osteoblasts, data not shown", "value": "did not affect"},
      {"measurement": "expression of M-CSF", "setting": "[4]; osteoblasts, data not shown", "value": "did not affect"},
      {"measurement": "expression of osteoprotegerin (Opg)", "setting": "[4]; osteoblasts, data not shown", "value": "did not affect"},
      {"measurement": "cAMP production in osteoblasts", "setting": "[5]", "value": "enhances"},
      {"measurement": "cAMP production in osteoblasts", "setting": "[5]; listed as Isoproterenol", "value": "stimulate"},
      {"measurement": "intracellular cAMP production in osteoclasts", "setting": "[6]", "value": "did not induce any significant"},
      {"measurement": "intracellular cAMP production in osteoclasts", "setting": "[6]; listed as ISO", "value": "does not induce"},
      {"measurement": "number of TRAP-positive multinucleated osteoclasts", "setting": "[7]", "value": "did not affect"},
      {"measurement": "number of TRAP-positive multinucleated osteoclasts", "setting": "[7]; listed as Isoproterenol", "value": "not affected"}
    ]},
    {"molecule": "CC(CCc1ccc(O)cc1)NCCc1ccc(O)c(O)c1", "note": "(stereo not drawn) [dobutamol]", "values": [
      {"measurement": "cAMP production in osteoblasts", "setting": "[5]", "value": "did not and not"}
    ]},
    {"molecule": "calcitonin", "values": [
      {"measurement": "intracellular cAMP production in osteoclasts", "setting": "[6]", "value": "robust stimulation"}
    ]},
    {"molecule": "CC(C)NCC(O)COc1cccc2ccccc12", "note": "(stereo not drawn) [propranolol]", "values": [
      {"measurement": "bone resorption parameters (OcS/BS, OcNb/BPm, urinary dpd)", "setting": "[8]", "value": "do not display a significant decrease; also recorded: did not affect"},
      {"measurement": "bone formation", "setting": "[9]", "value": "enhances"}
    ]},
    {"molecule": "CC(C)(C)NCC(O)c1ccc(O)c(CO)c1", "note": "(stereo not drawn) [salbutamol]", "values": [
      {"measurement": "cAMP production in osteoblasts", "setting": "[5]", "value": "stimulated"}
    ]},
    {"molecule": "B1", "values": [
      {"measurement": "cAMP production in osteoblasts", "setting": "[5]", "value": "stimulate"}
    ]}
  ]
}
